Reference: patent publication US10047096B2, “Substituted pyridobenzodiazepinone-derivatives and use thereof” (Bayer Pharma Aktiengesellschaft, priority 2014, dated 2018)
Structures can show the parent of a compound that is named as a salt.

Each compound was assayed against human PDGFRβ (Homo sapiens (Human), UniProt P09619) (assay: PDGFRβ kinase assay (PDGFRβ-HTRF)). Details: not given.
Type: biochemical
Experimental: The PDGFRβ-inhibitory activity of the inventive compounds was determined in the PDGFRβ-HTRF assay described hereinafter.
The kinase used was a recombinant fusion protein composed of N-terminal GST and a C-terminal fragment of human PDGFRβ (amino acids R561-L1106), expressed in baculovirus-infected insect cells (Sf9) and purified by affinity chromatography (from ProQinase GmbH, Freiburg, Germany). The substrate used for the kinase reaction was biotinylated poly-Glu,Tyr (4:1) copolymer (from Cisbio Bioassays, Codolet, France).
For the assay, 50 nl of a 100-fold concentrated solution of the test substance in DMSO was pipetted into a black “low-volume 384 well” microtitre plate (from Greiner Bio-One, Frickenhausen, Germany), then 2 μl of a solution of PDGFRβ in assay buffer [50 mM HEPES/NaOH pH 7.5, 10 mM MgCl2, 2.5 mM dithiothreitol, 0.01% (v/v) Triton-X100 (from Sigma)] was added and the mixture was incubated for 15 min, in order to enable preliminary binding of the substance to the enzyme before the kinase reaction. […] The resulting mixture was incubated at 22° C. for 1 h to allow formation of a complex of the biotinylated phosphorylated substrate and the detection reagents.
Subsequently, the amount of the phosphorylated substrate was evaluated by measuring the resonance energy transfer from the PT66-Eu chelate to the streptavidin-XL665. […] The IC50 values were calculated by a 4-parameter fit.

human PDGFRβ, sequence (P09619 561-1106): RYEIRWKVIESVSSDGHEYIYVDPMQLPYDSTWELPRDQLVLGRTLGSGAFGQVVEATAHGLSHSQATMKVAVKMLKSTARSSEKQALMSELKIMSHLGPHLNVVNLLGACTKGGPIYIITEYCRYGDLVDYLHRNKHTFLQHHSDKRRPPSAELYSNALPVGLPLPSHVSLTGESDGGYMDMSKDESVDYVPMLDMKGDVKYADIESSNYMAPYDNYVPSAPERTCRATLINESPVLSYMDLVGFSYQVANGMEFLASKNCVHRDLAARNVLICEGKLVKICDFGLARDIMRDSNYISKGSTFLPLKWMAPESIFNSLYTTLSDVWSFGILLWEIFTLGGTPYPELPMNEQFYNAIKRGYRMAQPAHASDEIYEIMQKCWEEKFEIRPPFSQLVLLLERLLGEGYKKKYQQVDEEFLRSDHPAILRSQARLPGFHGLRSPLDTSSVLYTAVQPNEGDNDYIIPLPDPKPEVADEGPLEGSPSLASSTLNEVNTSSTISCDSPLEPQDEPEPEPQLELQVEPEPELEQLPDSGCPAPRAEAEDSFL

Which IC50 does the source give for `Cc1ccc(O)cc1Nc1ccnc2c1C(=O)Nc1cc(CN3CCOCC3)ccc1N2` [Example 41, 4-[(5-Hydroxy-2-methylphenyl)amino]-8-(morpholin-4-ylmethyl)-6,11-dihydro-5H-pyrido[2,3-b][1,5]benzodiazepin-5-one formic acid salt] here?
The IC50 was 3.72 nM.

Same assay, conditions: 10 μM ATP; some mean values from multiple determinations

For `Cc1cc(F)c(Nc2ccnc3c2C(=O)Nc2cc(C#N)ccc2N3)cc1O` [Example 27, 4-[(2-Fluoro-5-hydroxy-4-methylphenyl)amino]-5-oxo-6,11-dihydro-5H-pyrido[2,3-b][1,5]benzodiazepine-8-carbonitrile], which IC50 is on record?
Its IC50 is 15.3 nM.

How did the IC50 turn out when `Cc1cc(F)c(Nc2ccnc3c2C(=O)Nc2cc(CN(C)C)ccc2N3)cc1O` [Example 33, 8-[(Dimethylamino)methyl]-4-[(2-fluoro-5-hydroxy-4-methylphenyl)amino]-6,11-dihydro-5H-pyrido[2,3-b][1,5]benzodiazepin-5-one] was run?
The IC50 was 4.3 nM.

How did the IC50 turn out when `N#Cc1ccc2c(c1)NC(=O)c1c(Nc3cccc(O)c3)ccnc1N2` [Example 35, 4-[(3-Hydroxyphenyl)amino]-5-oxo-6,11-dihydro-5H-pyrido[2,3-b][1,5]benzodiazepine-8-carbonitrile] was run?
The IC50 was 12.6 nM.

For `N#Cc1ccc2c(c1)NC(=O)c1c(Nc3cc(O)ccc3Cl)ccnc1N2` [Example 36, 4-[(2-Chloro-5-hydroxyphenyl)amino]-5-oxo-6,11-dihydro-5H-pyrido[2,3-b][1,5]benzodiazepine-8-carbonitrile], which IC50 is on record?
The IC50 was 20.1 nM.

`N#Cc1ccc2c(c1)NC(=O)c1c(Nc3cc(O)c(Cl)cc3F)ccnc1N2` [Example 37, 4-[(4-chloro-2-fluoro-5-hydroxyphenyl)amino]-5-oxo-6,11-dihydro-5H-pyrido[2,3-b][1,5]benzodiazepine-8-carbonitrile] was tested. Which IC50 did it give?
Its IC50 is 4.6 nM.

With `N#Cc1ccc2c(c1)NC(=O)c1c(Nc3cc(O)c(F)cc3F)ccnc1N2` [Example 38, 4-[(2,4-Difluoro-5-hydroxyphenyl)amino]-5-oxo-6,11-dihydro-5H-pyrido[2,3-b][1,5]benzodiazepine-8-carbonitrile] as the compound, how does the IC50 read?
The IC50 was 7.03 nM.

Which IC50 does the source give for `CCN(CC)Cc1ccc2c(c1)NC(=O)c1c(Nc3cc(O)ccc3C)ccnc1N2` [Example 39, 8-[(Diethylamino)methyl]-4-[(5-hydroxy-2-methylphenyl)amino]-6,11-dihydro-5H-pyrido[2,3-b][1,5]benzodiazepin-5-one] here?
The IC50 was 1.86 nM.

With `Cc1ccc(O)cc1Nc1ccnc2c1C(=O)Nc1cc(CN3CCCC3)ccc1N2` [Example 40, 4-[(5-Hydroxy-2-methylphenyl)amino]-8-(pyrrolidin-1-ylmethyl)-6,11-dihydro-5H-pyrido[2,3-b][1,5]benzodiazepin-5-one] as the compound, how does the IC50 read?
The IC50 was 1.8 nM.

`Cc1ccc(O)cc1Nc1ccnc2c1C(=O)Nc1cc(CN3CCN(C)CC3)ccc1N2` [Example 43, 4-[(5-Hydroxy-2-methylphenyl)amino]-8-[(4-methylpiperazin-1-yl)methyl]-6,11-dihydro-5H-pyrido[2,3-b][1,5]benzodiazepin-5-one] was tested. Which IC50 did it give?
The IC50 was 2.3 nM.

How did the IC50 turn out when `Cc1ccc(O)cc1Nc1ccnc2c1C(=O)Nc1cc(CN3CCN(CCO)CC3)ccc1N2` [Example 44, 8-{[4-(2-Hydroxyethyl)piperazin-1-yl]methyl}-4-[(5-hydroxy-2-methylphenyl)amino]-6,11-dihydro-5H-pyrido[2,3-b][1,5]benzodiazepin-5-one] was run?
The IC50 was 19.8 nM.

`Cc1cc(F)c(Nc2ccnc3c2C(=O)Nc2cc(CN4CCC(O)CC4)ccc2N3)cc1O` [Example 45, 4-[(2-Fluoro-5-hydroxy-4-methylphenyl)amino]-8-[(4-hydroxypiperidin-1-yl)methyl]-6,11-dihydro-5H-pyrido[2,3-b][1,5]benzodiazepin-5-one] was tested. Which IC50 did it give?
The IC50 was 0.928 nM.

Which IC50 does the source give for `Cc1cc(F)c(Nc2ccnc3c2C(=O)Nc2cc(CN4CCN(C)CC4)ccc2N3)cc1O` [Example 46, 4-[(2-Fluoro-5-hydroxy-4-methylphenyl)amino]-8-[(4-methylpiperazin-1-yl)methyl]-6,11-dihydro-5H-pyrido[2,3-b][1,5]benzodiazepin-5-one] here?
Its IC50 is 1.52 nM.

With `Cc1cc(F)c(Nc2ccnc3c2C(=O)Nc2cc(CN4CCN(CCO)CC4)ccc2N3)cc1O` [Example 47, 4-[(2-Fluoro-5-hydroxy-4-methylphenyl)amino]-8-{[4-(2-hydroxyethyl)piperazin-1-yl]methyl}-6,11-dihydro-5H-pyrido[2,3-b][1,5]benzodiazepin-5-one] as the compound, how does the IC50 read?
The IC50 was 3.67 nM.

With `Cc1cc(F)c(Nc2ccnc3c2C(=O)Nc2cc(CNC(C)C)ccc2N3)cc1O` [Example 48, 4-[(2-Fluoro-5-hydroxy-4-methylphenyl)amino]-8-[(isopropylamino)methyl]-6,11-dihydro-5H-pyrido[2,3-b][1,5]benzodiazepin-5-one] as the compound, how does the IC50 read?
Its IC50 is 1.01 nM.

For `CCCCN(CC)Cc1ccc2c(c1)NC(=O)c1c(Nc3cc(O)c(C)cc3F)ccnc1N2` [Example 53, 8-{[Butyl(ethyl)amino]methyl}-4-[(2-fluoro-5-hydroxy-4-methylphenyl)amino]-6,11-dihydro-5H-pyrido[2,3-b][1,5]benzodiazepin-5-one], which IC50 is on record?
Its IC50 is 0.962 nM.

`CCCC1CCN(Cc2ccc3c(c2)NC(=O)c2c(Nc4cc(O)c(C)cc4F)ccnc2N3)CC1` [Example 54, 4-[(2-Fluoro-5-hydroxy-4-methylphenyl)amino]-8-[(4-propylpiperidin-1-yl)methyl]-6,11-dihydro-5H-pyrido[2,3-b][1,5]benzodiazepin-5-one] was tested. Which IC50 did it give?
The IC50 was 6.51 nM.

With `Cc1cc(F)c(Nc2ccnc3c2C(=O)Nc2cc(CN4CCC(C)(C)CC4)ccc2N3)cc1O` [Example 56, 8-[(4,4-Dimethylpiperidin-1-yl)methyl]-4-[(2-fluoro-5-hydroxy-4-methylphenyl)amino]-6,11-dihydro-5H-pyrido[2,3-b][1,5]benzodiazepin-5-one] as the compound, how does the IC50 read?
Its IC50 is 1.49 nM.

How did the IC50 turn out when `Cc1cc(F)c(Nc2ccnc3c2C(=O)Nc2cc(CN4CCC(C)C(O)C4)ccc2N3)cc1O` (stereo not shown) [Example 59, 4-[(2-Fluoro-5-hydroxy-4-methylphenyl)amino]-8-[(3-hydroxy-4-methylpiperidin-1-yl)methyl]-6,11-dihydro-5H-pyrido[2,3-b][1,5]benzodiazepin-5-one] was run?
Its IC50 is 1.82 nM.

Which IC50 does the source give for `Cc1cc(F)c(Nc2ccnc3c2C(=O)Nc2cc(CNCCc4ccncc4)ccc2N3)cc1O` [Example 74, 4-[(2-Fluoro-5-hydroxy-4-methylphenyl)amino]-8-({[2-(pyridin-4-yl)ethyl]amino}methyl)-6,11-dihydro-5H-pyrido[2,3-b][1,5]benzodiazepin-5-one] here?
Its IC50 is 0.475 nM.

How did the IC50 turn out when `Cc1cc(F)c(Nc2ccnc3c2C(=O)Nc2cc(C(=O)O)ccc2N3)cc1O` [Example 79, 4-[(2-Fluoro-5-hydroxy-4-methylphenyl)amino]-5-oxo-6,11-dihydro-5H-pyrido[2,3-b][1,5]benzodiazepine-8-carboxylic acid] was run?
Its IC50 is 213 nM.

Which IC50 does the source give for `Cc1cc(F)c(Nc2ccnc3c2C(=O)Nc2cc(C(N)=O)ccc2N3)cc1O` [Example 80, 4-[(2-Fluoro-5-hydroxy-4-methylphenyl)amino]-5-oxo-6,11-dihydro-5H-pyrido[2,3-b][1,5]benzodiazepine-8-carboxamide] here?
Its IC50 is 7.44 nM.

`Cc1cc(F)c(Nc2ccnc3c2C(=O)Nc2cc(C(=O)NC4CCCC(O)C4)ccc2N3)cc1O` (stereo not shown) [Example 81, 4-[(2-Fluoro-5-hydroxy-4-methylphenyl)amino]-N-(3-hydroxycyclohexyl)-5-oxo-6,11-dihydro-5H-pyrido[2,3-b][1,5]benzodiazepine-8-carboxamide] was tested. Which IC50 did it give?
Its IC50 is 1.31 nM.

Which IC50 does the source give for `CCN(CC)C(=O)c1ccc2c(c1)NC(=O)c1c(Nc3cc(O)c(C)cc3F)ccnc1N2` [Example 84, N,N-Diethyl-4-[(2-fluoro-5-hydroxy-4-methylphenyl)amino]-5-oxo-6,11-dihydro-5H-pyrido[2,3-b][1,5]benzodiazepine-8-carboxamide] here?
Its IC50 is 14.6 nM.

For `Cc1cc(F)c(Nc2ccnc3c2C(=O)Nc2cc(C(=O)N4CCOCC4)ccc2N3)cc1O` [Example 85, 4-[(2-Fluoro-5-hydroxy-4-methylphenyl)amino]-8-(morpholin-4-ylcarbonyl)-6,11-dihydro-5H-pyrido[2,3-b][1,5]benzodiazepin-5-one], which IC50 is on record?
Its IC50 is 13.9 nM.

How did the IC50 turn out when `Cc1cc(F)c(Nc2ccnc3c2C(=O)Nc2cc(CN)ccc2N3)cc1O` [Example 87, 8-(Aminomethyl)-4-[(2-fluoro-5-hydroxy-4-methylphenyl)amino]-6,11-dihydro-5H-pyrido[2,3-b][1,5]benzodiazepin-5-one] was run?
Its IC50 is 1.41 nM.

For `CCN1CCCC1CNCc1ccc2c(c1)NC(=O)c1c(Nc3cc(O)ccc3C)ccnc1N2` (stereo not shown) [Example 92, 8-({[(1-Ethylpyrrolidin-2-yl)methyl]amino}methyl)-4-[(5-hydroxy-2-methylphenyl)amino]-6,11-dihydro-5H-pyrido[2,3-b][1,5]benzodiazepin-5-one], which IC50 is on record?
Its IC50 is 5.27 nM.

With `CCC(CC)CNCc1ccc2c(c1)NC(=O)c1c(Nc3cc(O)ccc3C)ccnc1N2` [Example 93] as the compound, how does the IC50 read?
Its IC50 is 4.98 nM.

For `Cc1ccc(O)cc1Nc1ccnc2c1C(=O)Nc1cc(CNCc3cccc(F)c3F)ccc1N2` [Example 94], which IC50 is on record?
Its IC50 is 3.52 nM.

How did the IC50 turn out when `Cc1ccc(O)cc1Nc1ccnc2c1C(=O)Nc1cc(CNCc3ccc(Cl)nc3)ccc1N2` [Example 95] was run?
Its IC50 is 1.95 nM.

Same assay, conditions: 10 μM ATP; some mean values from multiple determinations; acetic acid salt

With `Cc1cc(F)c(Nc2ccnc3c2C(=O)Nc2cc(CNC4CCCC4)ccc2N3)cc1O` [Example 34, 8-[(Cyclopentylamino)methyl]-4-[(2-fluoro-5-hydroxy-4-methylphenyl)amino]-6,11-dihydro-5H-pyrido[2,3-b][1,5]benzodiazepin-5-one acetic acid salt] as the compound, how does the IC50 read?
The IC50 was 5.06 nM.
